Test results from US11498899B2, “Nitrone herbicides” (FMC Corporation, priority 2016, dated 2022).

Columns and labels:
[1] = tested on: barnyardgrass (Echinochloa crus-galli); assay: Test A preemergence, visual injury rating 0-100 (0 no effect, 100 complete control); assay type: in vivo
[2] = tested on: ragweed (common ragweed, Ambrosia elatior); assay: Test A preemergence, visual injury rating 0-100; assay type: in vivo
[3] = tested on: pigweed (Amaranthus retroflexus); assay: Test A preemergence, visual injury rating 0-100; assay type: in vivo
[4] = tested on: foxtail, giant (giant foxtail, Setaria faberii); assay: Test A preemergence, visual injury rating 0-100; assay type: in vivo
[5] = tested on: ryegrass, Italian (Italian ryegrass, Lolium multiflorum); assay: Test A preemergence, visual injury rating 0-100; assay type: in vivo
kochia (Kochia scoparia) [6] = assay: Test A preemergence, visual injury rating 0-100; assay type: in vivo
[7] = tested on: ragweed (common ragweed, Ambrosia elatior); assay: Test A postemergence, visual injury rating 0-100; assay type: in vivo; details: 0 to 100 scale
[8] = tested on: galium (catchweed bedstraw, Galium aparine); assay: Test A postemergence, visual injury rating 0-100; assay type: in vivo; details: 0 to 100 scale
[9] = tested on: wheat (Triticum aestivum); assay: Test A postemergence, visual injury rating 0-100; assay type: in vivo; details: 0 to 100 scale
[10] = tested on: pigweed (Amaranthus retroflexus); assay: Test A postemergence, visual injury rating 0-100; assay type: in vivo; details: 0 to 100 scale
[11] = tested on: foxtail, giant (giant foxtail, Setaria faberii); assay: Test A postemergence, visual injury rating 0-100; assay type: in vivo; details: 0 to 100 scale
corn (Zea mays) = assay: Test A postemergence, visual injury rating 0-100; assay type: in vivo; details: 0 to 100 scale
[12] = tested on: ryegrass, Italian (Italian ryegrass, Lolium multiflorum); assay: Test A postemergence, visual injury rating 0-100; assay type: in vivo; details: 0 to 100 scale
kochia (Kochia scoparia) [13] = assay: Test A postemergence, visual injury rating 0-100; assay type: in vivo; details: 0 to 100 scale
[14] = tested on: blackgrass (Alopecurus myosuroides); assay: Test A postemergence, visual injury rating 0-100; assay type: in vivo; details: 0 to 100 scale
[15] = tested on: barnyardgrass (Echinochloa crus-galli); assay: Test A postemergence, visual injury rating 0-100; assay type: in vivo; details: 0 to 100 scale
rice (Oryza sativa) = assay: Test B flooded paddy test, visual rating 0-100 (0 no effect, 100 complete control); details: Flood, 250 g ai/ha, applied to paddy water, rated after 13 to 15 days
[16] = tested on: ducksalad (Heteranthera limosa); assay: Test B flooded paddy test, visual rating 0-100; details: Flood, 250 g ai/ha, applied to paddy water, rated after 13 to 15 days
[17] = tested on: barnyardgrass (Echinochloa crus-galli); assay: Test B flooded paddy test, visual rating 0-100; details: Flood, 250 g ai/ha, applied to paddy water, rated after 13 to 15 days
[18] = 31 g ai/ha, 0 to 100 scale (0 no effect, 100 complete control), approx. 10 days

SMILES	Barnyardgrass plant response rating (0 to 100 scale) ([1]; 125 g ai/ha)	Barnyardgrass plant response rating (0 to 100 scale) ([1]; 500 g ai/ha)	Ragweed plant response rating (0 to 100 scale) ([2]; 125 g ai/ha)	Pigweed plant response rating (0 to 100 scale) ([3]; 125 g ai/ha)	Foxtail, Giant plant response rating (0 to 100 scale) ([4]; 125 g ai/ha)	Ryegrass, Italian plant response rating (0 to 100 scale) ([5]; 125 g ai/ha)	Kochia plant response rating (0 to 100 scale) (kochia (Kochia scoparia) [6]; 125 g ai/ha)	Ragweed plant response rating ([7]; 125 g ai/ha)	Galium plant response rating ([8]; 125 g ai/ha)	Wheat plant response rating ([9]; 125 g ai/ha)	Pigweed plant response rating ([10]; 125 g ai/ha)	Foxtail, Giant plant response rating ([11]; 125 g ai/ha)	Corn plant response rating (corn (Zea mays); 125 g ai/ha)	Ryegrass, Italian plant response rating ([12]; 125 g ai/ha)	Kochia plant response rating (kochia (Kochia scoparia) [13]; 125 g ai/ha)	Blackgrass plant response rating ([14]; 125 g ai/ha)	Barnyardgrass plant response rating ([15]; 125 g ai/ha)	Rice plant response rating (0 to 100 scale) (rice (Oryza sativa))	Ducksalad plant response rating (0 to 100 scale) [16]	Barnyardgrass plant response rating (0 to 100 scale) [17]	further results
CC1=[N+]([O-])C(C(=O)Nc2cccc(F)c2F)C(c2ccc(F)c(Cl)c2)C1 (racemic) [Compound 63]	80	90	0	10	90	20	0	0	30	40	0	50	10	30	20	70	50	0	30	65	Ragweed plant response rating (0 to 100 scale) ([2]; 500 g ai/ha): 80; Pigweed plant response rating (0 to 100 scale) ([3]; 500 g ai/ha): 60; Foxtail, Giant plant response rating (0 to 100 scale) ([4]; 500 g ai/ha): 90; Ryegrass, Italian plant response rating (0 to 100 scale) ([5]; 500 g ai/ha): 80; Kochia plant response rating (0 to 100 scale) (kochia (Kochia scoparia) [6]; 500 g ai/ha): 40; Ragweed plant response rating ([7]; 500 g ai/ha): 20; Galium plant response rating ([8]; 500 g ai/ha): 70; Wheat plant response rating ([9]; 500 g ai/ha): 80; Pigweed plant response rating ([10]; 500 g ai/ha): 20; Foxtail, Giant plant response rating ([11]; 500 g ai/ha): 90; Corn plant response rating (corn (Zea mays); 500 g ai/ha): 90; Ryegrass, Italian plant response rating ([12]; 500 g ai/ha): 90; Kochia plant response rating (kochia (Kochia scoparia) [13]; 500 g ai/ha): 30; Blackgrass plant response rating ([14]; 500 g ai/ha): 90; Barnyardgrass plant response rating ([15]; 500 g ai/ha): 90
CC1=[N+]([O-])[C@@H](C(=O)Nc2cccc(F)c2F)[C@H](c2cccc(OC(C)(C)C)c2)C1 [Compound 69]	90		0	0	100	80	0	20	40	0	20	90	0	70	0	70	70	0	95	90	Barnyardgrass plant response rating [1, 18]: 90; Ragweed plant response rating [2, 18]: 0; Pigweed plant response rating [3, 18]: 0; Foxtail, Giant plant response rating [4, 18]: 90; Ryegrass, Italian plant response rating [5, 18]: 20; Kochia plant response rating (kochia (Kochia scoparia) [6]; [18]): 0; Ragweed plant response rating ([7]; 31 g ai/ha): 0; Galium plant response rating ([8]; 31 g ai/ha): 20; Wheat plant response rating ([9]; 31 g ai/ha): 0; Pigweed plant response rating ([10]; 31 g ai/ha): 0; Foxtail, Giant plant response rating ([11]; 31 g ai/ha): 20; Corn plant response rating (corn (Zea mays); 31 g ai/ha): 0; Ryegrass, Italian plant response rating ([12]; 31 g ai/ha): 30; Kochia plant response rating (kochia (Kochia scoparia) [13]; 31 g ai/ha): 0; Blackgrass plant response rating ([14]; 31 g ai/ha): 10; Barnyardgrass plant response rating ([15]; 31 g ai/ha): 30
COc1cc(C2CC(C)=[N+]([O-])C2C(=O)Nc2cccc(F)c2F)cc(C)n1 (racemic) [Compound 57]	90	100	0	0	90	20	60	0	30	20	0	40	60	40	0	80	80	0	0	55	Ragweed plant response rating (0 to 100 scale) ([2]; 500 g ai/ha): 30; Pigweed plant response rating (0 to 100 scale) ([3]; 500 g ai/ha): 20; Foxtail, Giant plant response rating (0 to 100 scale) ([4]; 500 g ai/ha): 100; Ryegrass, Italian plant response rating (0 to 100 scale) ([5]; 500 g ai/ha): 90; Kochia plant response rating (0 to 100 scale) (kochia (Kochia scoparia) [6]; 500 g ai/ha): 60; Ragweed plant response rating ([7]; 500 g ai/ha): 0; Galium plant response rating ([8]; 500 g ai/ha): 40; Wheat plant response rating ([9]; 500 g ai/ha): 90; Pigweed plant response rating ([10]; 500 g ai/ha): 0; Foxtail, Giant plant response rating ([11]; 500 g ai/ha): 90; Corn plant response rating (corn (Zea mays); 500 g ai/ha): 90; Ryegrass, Italian plant response rating ([12]; 500 g ai/ha): 90; Kochia plant response rating (kochia (Kochia scoparia) [13]; 500 g ai/ha): 30; Blackgrass plant response rating ([14]; 500 g ai/ha): 90; Barnyardgrass plant response rating ([15]; 500 g ai/ha): 80
